Data published in patent publication US8084467B2, “Pyrazole derivatives as cannabinoid receptor antagonists” (University of Connecticut, priority 2004, dated 2011).
Several values for one entry are separate records, joined by “and”; a condition that tells them apart may be missing. Equal values may be shown once. Read-outs that look alike come from different tables or passages of the source.

Assays:
CB2 receptor = molecular target: T1, CB2 receptor (Mus musculus, UniProt P47936); assay: CB2 receptor binding, mouse spleen membranes, same manner as the CB1 binding assay; conditions: for Ki: [3H] CP-55,940
T1 construct: membranes were prepared from frozen mouse spleen; from tissue; host or cells: mouse spleen
T1 sequence (P47936 whole entry): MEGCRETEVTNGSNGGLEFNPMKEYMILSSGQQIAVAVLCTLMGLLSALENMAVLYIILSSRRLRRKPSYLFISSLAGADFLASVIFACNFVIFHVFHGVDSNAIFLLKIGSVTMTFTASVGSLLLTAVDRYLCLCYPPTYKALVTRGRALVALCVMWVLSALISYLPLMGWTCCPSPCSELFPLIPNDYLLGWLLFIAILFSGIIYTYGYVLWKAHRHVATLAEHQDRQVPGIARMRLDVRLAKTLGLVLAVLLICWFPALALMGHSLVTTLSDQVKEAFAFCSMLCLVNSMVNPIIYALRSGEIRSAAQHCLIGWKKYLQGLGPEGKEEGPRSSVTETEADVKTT
Description: Some of the inventive analogs were tested for CB2 receptor binding affinity and for CB1 receptor affinity (to determine selectivity). […] The lower the Ki value the higher the binding affinity.
(§1) The treated membranes were subsequently used in the binding assay described below. Approximately 30 μg of membranes were incubated in silanized 96-well microtiter plate with TME containing 0.1% essentially fatty acid-free bovine serum albumin (BSA), 0.8 nM [^3H] […] Radioactivity was detected using MicroScint 20 scintillation cocktail added directly to the dried filterplates, and the filterplates were counted using a Packard Instruments Top-Count. […] Data collected from three independent experiments performed with duplicate determinations was normalized between 100% and 0% specific binding for [^3H] […] The normalized data was analyzed using a 4-parameter nonlinear logistic equation to yield IC50 values.
Silanized centrifuge tubes were used throughout to minimize receptor loss due to adsorption. The CB2 binding assay was conducted in the same manner as for the CB1 binding assay. The binding affinities (Ki) were also expressed in nanomoles (nM).

CB1 cannabinoid receptor = molecular target: T2, CB1 cannabinoid receptor (Rattus norvegicus, UniProt P20272); assay: CB1 receptor binding, rat forebrain membranes, [3H] CP-55,940 displacement; conditions: for Ki: 0.8 nM [3H] CP-55,940; for selectivity CB1: ratio of CB2 Ki to CB1 Ki
T2 construct: membranes were prepared from rat forebrain membranes; from tissue; host or cells: rat forebrain
T2 sequence (P20272 whole entry): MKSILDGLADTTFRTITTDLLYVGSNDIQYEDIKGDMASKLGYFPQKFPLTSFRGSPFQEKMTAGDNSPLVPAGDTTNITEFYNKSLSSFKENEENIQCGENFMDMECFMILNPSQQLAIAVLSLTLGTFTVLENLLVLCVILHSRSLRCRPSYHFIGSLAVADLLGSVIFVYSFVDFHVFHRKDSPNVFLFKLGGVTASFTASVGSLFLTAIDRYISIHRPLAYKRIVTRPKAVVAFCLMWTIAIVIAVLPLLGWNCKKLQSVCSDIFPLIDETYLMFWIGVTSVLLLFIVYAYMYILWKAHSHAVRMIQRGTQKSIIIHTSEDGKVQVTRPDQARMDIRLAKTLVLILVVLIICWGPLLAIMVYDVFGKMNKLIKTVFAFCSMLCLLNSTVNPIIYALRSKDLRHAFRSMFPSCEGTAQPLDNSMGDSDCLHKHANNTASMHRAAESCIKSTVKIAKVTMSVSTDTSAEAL
Description: Some of the inventive analogs were tested for CB2 receptor binding affinity and for CB1 receptor affinity (to determine selectivity). […] The lower the Ki value the higher the binding affinity. […]
Membranes, previously frozen at −80° C., were thawed on ice. To the stirred suspension was added three volumes of TME (25 mM Tris-HCl buffer, 5 mM MgCl2 and 1 mM EDTA) at a pH 7.4. The suspension was incubated at 4° C. for 30 min. At the end of the incubation, the membranes were pelleted and washed three times with TME.
as §1

[1] = mouse spleen membranes, read-out: affinities Ki CB2
[2] = rat forebrain membranes, read-out: affinities Ki CB1
[3] = affinities Ki CB2, mouse spleen membranes
[4] = affinities Ki CB1, rat forebrain membranes

## Cc1c(C=Cc2ccccc2)nn(-c2ccc(Cl)cc2Cl)c1-c1ccc(Br)cc1 [Compound 1-24]
CB2 receptor; [1]
  Ki: 10600 nM
CB1 cannabinoid receptor; [2]
  Ki: 141 nM
CB1 cannabinoid receptor
  selectivity CB1: 75.0

## Cc1c(C(=O)NN2CCCCC2)nn(-c2ccc(Cl)cc2Cl)c1-c1ccc(Br)cc1 [Compound 3-16]
CB2 receptor; [1]
  Ki: 897 nM
CB1 cannabinoid receptor; [2]
  Ki: 17 nM
CB1 cannabinoid receptor
  selectivity CB1: 52.8

## CN(C(=O)c1nn(-c2ccc(Cl)cc2Cl)c(-c2ccc(-c3nnnn3C)cc2)c1CO)C1CCCCC1 [Compound 2-17]
CB2 receptor; [1]
  Ki: 1410 nM
CB1 cannabinoid receptor; [2]
  Ki: 1080 nM
CB1 cannabinoid receptor
  selectivity CB1: 1.3

## CN(C(=O)Nc1nn(-c2ccc(Cl)cc2Cl)c(-c2ccc(Br)cc2)c1CO)C1CCCCC1 [Compound 2-21]
CB2 receptor; [1]
  Ki: 4470 nM
CB1 cannabinoid receptor; [2]
  Ki: 296 nM
CB1 cannabinoid receptor
  selectivity CB1: 15.1

## O=C(NN1CCCCC1)c1nn(-c2ccc(Cl)cc2Cl)c(-c2ccc(Br)cc2)c1CO [Compound 3-3]
CB2 receptor; [3]
  Ki: 490 nM
CB1 cannabinoid receptor; [4]
  Ki: 46 nM
CB1 cannabinoid receptor
  selectivity CB1: 10.6

## O=C(NC1CCCCC1)c1nn(-c2ccc(Cl)cc2Cl)c(-c2ccc(Br)cc2)c1CO [Compound 3-18]
CB2 receptor; [1]
  Ki: 2120 nM
CB1 cannabinoid receptor; [2]
  Ki: 6 nM
CB1 cannabinoid receptor
  selectivity CB1: 353.3

## Cc1c(C(=O)NN2CCCCC2)nn(-c2ccc(Cl)cc2Cl)c1-c1ccc(-c2cccc(Cl)c2)cc1 [Compound 1-1]
CB2 receptor; [1]
  Ki: 741 nM
CB1 cannabinoid receptor; [2]
  Ki: 1.5 nM
CB1 cannabinoid receptor
  selectivity CB1: 491

## COCc1c(C(=O)NC2CCCCC2)nn(-c2ccc(Cl)cc2Cl)c1-c1ccc(-c2ccccn2)cc1 [Compound 1-20]
CB2 receptor; [1]
  Ki: 277 nM
CB1 cannabinoid receptor; [2]
  Ki: 51 nM
CB1 cannabinoid receptor
  selectivity CB1: 5.4

## Cc1c(C(=O)NN2CCCCC2)nn(-c2ccc(Cl)cc2Cl)c1-c1ccc(-c2nnnn2C)cc1 [Compound 2-2]
CB2 receptor; [1]
  Ki: 242 nM
CB1 cannabinoid receptor; [2]
  Ki: 90 nM
CB1 cannabinoid receptor
  selectivity CB1: 2.7

## COCc1c(C(=O)NC2CCCCC2)nn(-c2ccc(Cl)cc2Cl)c1-c1ccc(-c2ccncc2)cc1 [Compound 1-19]
CB2 receptor; [1]
  Ki: 2980 nM
CB1 cannabinoid receptor; [2]
  Ki: 160 nM
CB1 cannabinoid receptor
  selectivity CB1: 18.6

## CCCCCC=Cc1nn(-c2ccc(Cl)cc2Cl)c(-c2ccc(Br)cc2)c1C [Compound 1-26]
CB2 receptor; [3]
  Ki: 52900 nM
CB1 cannabinoid receptor; [2]
  Ki: 7680 nM
CB1 cannabinoid receptor
  selectivity CB1: 6.9

## Cc1c(C=Cc2ccccc2)nn(-c2ccc(Cl)cc2Cl)c1-c1ccc(Br)cc1 [Compound 1-23]
CB2 receptor; [1]
  Ki: 16400 nM
CB1 cannabinoid receptor; [2]
  Ki: 331 nM
CB1 cannabinoid receptor
  selectivity CB1: 49.6

## CNCc1c(C(=O)NC2CCCCC2)nn(-c2ccc(Cl)cc2Cl)c1-c1ccc(Br)cc1 [Compound 1-15]
CB2 receptor; [1]
  Ki: 397 nM
CB1 cannabinoid receptor; [2]
  Ki: 172 nM
CB1 cannabinoid receptor
  selectivity CB1: 2.3

## Cc1c(NC(=O)NC23CC4CC(CC(C4)C2)C3)nn(-c2ccc(Cl)cc2Cl)c1-c1ccc(Br)cc1 [Compound 3-12]
CB2 receptor; [1]
  Ki: 756 nM
CB1 cannabinoid receptor; [2]
  Ki: 259 nM
CB1 cannabinoid receptor
  selectivity CB1: 2.9

## Cc1c(C(=O)NC2CCCCC2)nn(-c2ccc(Cl)cc2Cl)c1-c1ccc(-c2nnnn2C)cc1 [Compound 2-8]
CB2 receptor; [1]
  Ki: 1070 nM
CB1 cannabinoid receptor; [2]
  Ki: 120 nM
CB1 cannabinoid receptor
  selectivity CB1: 8.9

## O=C(NC12CC3CC(CC(C3)C1)C2)c1cc(-c2ccccc2)n(CCCCCCl)n1 [Compound 4-6]
CB2 receptor; [3]
  Ki: 4.79 nM and 4.8 nM
CB2 receptor; ratio of CB1 Ki to CB2 Ki
  selectivity CB2: 2.5
CB1 cannabinoid receptor; [4]
  Ki: 12.2 nM and 12 nM

## CN(C(=O)c1nn(-c2ccc(Cl)cc2Cl)c(-c2ccc(I)cc2)c1CO)C1CCCCC1 [Compound 3-2]
CB2 receptor; [3]
  Ki: 528 nM
CB1 cannabinoid receptor; [4]
  Ki: 18 nM
CB1 cannabinoid receptor
  selectivity CB1: 29.3

## COCOCc1c(C(=O)N2CCCCC2)nn(-c2ccc(Cl)cc2Cl)c1-c1ccc(Br)cc1 [Compound 1-14]
CB2 receptor; [3]
  Ki: 3100 nM
CB1 cannabinoid receptor; [2]
  Ki: 395 nM
CB1 cannabinoid receptor
  selectivity CB1: 7.8
